Source: paper PMC4904262 (ACS Medicinal Chemistry Letters, 2016)

Experiments:
PKA = PKA (Homo sapiens, UniProt P17612); settings: 1 µM, ATP at Km
Caco-2 = settings: human
[1] = mouse, in vivo, iv, 0.2 mg/kg
aldehyde oxidase = aldehyde oxidase (Homo sapiens, UniProt Q06278)
in vivo [2] = settings: mouse
in vivo [3] = settings: rat
[4] = biological target: CDK19 in the presence of cyclin C (Homo sapiens, UniProt Q9BWU1); experiment: biochemical; settings: read-out: CDK19 residence time ± SD
ABL(T315I) = ABL(T315I) (Homo sapiens, UniProt P00519, T315I); settings: 1 µM, ATP at Km
CK1(Y) = settings: 1 µM, ATP at Km
EGFR(L858R) = EGFR(L858R) (Homo sapiens, UniProt P00533, L858R); settings: 1 µM, ATP at Km
CKIT(D816V) = CKIT(D816V) (Homo sapiens, UniProt P10721, D816V); settings: 1 µM, ATP at Km
CKIT(D816V), sequence (P10721 26-976 D816V): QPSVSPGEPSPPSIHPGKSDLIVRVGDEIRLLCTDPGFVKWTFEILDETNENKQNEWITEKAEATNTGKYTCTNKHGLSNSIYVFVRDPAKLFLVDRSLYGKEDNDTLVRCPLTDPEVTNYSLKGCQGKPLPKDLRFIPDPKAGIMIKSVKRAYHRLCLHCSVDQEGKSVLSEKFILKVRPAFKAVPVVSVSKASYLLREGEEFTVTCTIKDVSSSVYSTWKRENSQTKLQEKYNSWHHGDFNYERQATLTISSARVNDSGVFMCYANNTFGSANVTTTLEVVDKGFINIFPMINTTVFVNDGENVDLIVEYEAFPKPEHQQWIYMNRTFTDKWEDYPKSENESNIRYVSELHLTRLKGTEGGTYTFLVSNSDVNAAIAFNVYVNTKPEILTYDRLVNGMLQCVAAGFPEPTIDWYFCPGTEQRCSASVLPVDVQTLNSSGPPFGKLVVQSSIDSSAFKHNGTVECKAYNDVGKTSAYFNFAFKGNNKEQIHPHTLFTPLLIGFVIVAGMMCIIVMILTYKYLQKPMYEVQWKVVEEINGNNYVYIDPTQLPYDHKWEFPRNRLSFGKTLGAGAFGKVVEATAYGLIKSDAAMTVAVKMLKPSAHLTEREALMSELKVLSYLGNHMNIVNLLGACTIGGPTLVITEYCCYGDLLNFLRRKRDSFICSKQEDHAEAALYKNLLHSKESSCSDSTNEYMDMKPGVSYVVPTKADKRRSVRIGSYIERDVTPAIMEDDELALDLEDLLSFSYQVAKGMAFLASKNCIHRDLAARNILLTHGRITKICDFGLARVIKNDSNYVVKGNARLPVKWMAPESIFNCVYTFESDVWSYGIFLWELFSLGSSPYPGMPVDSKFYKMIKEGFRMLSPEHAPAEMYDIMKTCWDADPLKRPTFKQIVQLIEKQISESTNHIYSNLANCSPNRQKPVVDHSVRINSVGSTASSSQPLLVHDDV

EGFR(T790M) = EGFR(T790M) (Homo sapiens, UniProt P00533, T790M); settings: 1 µM, ATP at Km
EGFR(T790M,L858R) = EGFR(T790M,L858R) (Homo sapiens, UniProt P00533, L858R/T790M); settings: 1 µM, ATP at Km
[…](D842V) = […](D842V) (Homo sapiens, UniProt P16234, D842V); settings: 1 µM, ATP at Km
CKIT(V654A) = CKIT(V654A) (Homo sapiens, UniProt P10721, V654A); settings: 1 µM, ATP at Km
CKIT(V654A), sequence (P10721 26-976 V654A): as the sequence (P10721 26-976 D816V) above, with V629A, V791D counted along it

CHK2(R145W) = CHK2(R145W) (Homo sapiens, UniProt O96017, R145W); settings: 1 µM, ATP at Km
CHK2(R145W), sequence (O96017 whole entry R145W): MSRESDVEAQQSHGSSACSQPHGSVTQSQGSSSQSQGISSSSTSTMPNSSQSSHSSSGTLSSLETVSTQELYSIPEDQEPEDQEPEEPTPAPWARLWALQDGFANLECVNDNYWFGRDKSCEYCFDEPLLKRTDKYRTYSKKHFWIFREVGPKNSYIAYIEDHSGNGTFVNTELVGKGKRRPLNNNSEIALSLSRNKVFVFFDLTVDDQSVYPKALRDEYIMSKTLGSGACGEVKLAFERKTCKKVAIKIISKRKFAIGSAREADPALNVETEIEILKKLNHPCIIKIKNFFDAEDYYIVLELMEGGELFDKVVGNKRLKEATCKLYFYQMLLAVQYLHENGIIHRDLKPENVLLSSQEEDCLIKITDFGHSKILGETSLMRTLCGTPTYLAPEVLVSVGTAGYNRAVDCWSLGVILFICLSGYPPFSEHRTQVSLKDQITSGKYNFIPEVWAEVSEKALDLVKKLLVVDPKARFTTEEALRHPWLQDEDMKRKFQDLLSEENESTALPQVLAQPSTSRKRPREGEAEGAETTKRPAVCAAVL

CHK2(I157T) = CHK2(I157T) (Homo sapiens, UniProt O96017, I157T); settings: 1 µM, ATP at Km
CHK2(I157T), sequence (O96017 whole entry I157T): as the sequence (O96017 whole entry R145W) above, with W145R, I157T counted along it

FGFR2(N549H) = FGFR2(N549H) (Homo sapiens, UniProt P21802, N549H); settings: 1 µM, ATP at Km
FGFR2(N549H), sequence (P21802 22-821 N549H): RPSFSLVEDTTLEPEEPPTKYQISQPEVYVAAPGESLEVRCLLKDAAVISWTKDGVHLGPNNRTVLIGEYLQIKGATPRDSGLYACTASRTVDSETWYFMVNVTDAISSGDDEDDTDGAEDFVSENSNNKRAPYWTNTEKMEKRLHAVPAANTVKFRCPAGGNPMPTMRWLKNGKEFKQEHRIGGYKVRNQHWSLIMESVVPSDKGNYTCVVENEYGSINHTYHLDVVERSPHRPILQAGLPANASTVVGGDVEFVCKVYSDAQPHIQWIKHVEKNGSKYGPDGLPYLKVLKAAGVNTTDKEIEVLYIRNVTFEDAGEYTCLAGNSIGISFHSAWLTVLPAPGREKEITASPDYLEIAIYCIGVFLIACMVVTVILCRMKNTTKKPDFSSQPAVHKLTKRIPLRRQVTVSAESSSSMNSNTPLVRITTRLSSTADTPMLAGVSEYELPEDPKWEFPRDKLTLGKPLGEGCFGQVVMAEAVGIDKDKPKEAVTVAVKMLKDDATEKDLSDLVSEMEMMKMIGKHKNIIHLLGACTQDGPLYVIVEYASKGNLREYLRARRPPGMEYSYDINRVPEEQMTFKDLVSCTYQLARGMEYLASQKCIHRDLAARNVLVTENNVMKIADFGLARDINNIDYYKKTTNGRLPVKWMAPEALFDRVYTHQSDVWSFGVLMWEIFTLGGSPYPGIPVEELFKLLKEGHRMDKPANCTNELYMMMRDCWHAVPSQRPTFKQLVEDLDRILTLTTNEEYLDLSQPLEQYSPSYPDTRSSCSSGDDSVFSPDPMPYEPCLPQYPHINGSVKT

SRC(1-530) = SRC(1-530) (Homo sapiens, UniProt P12931); settings: 1 µM, ATP at Km
SRC(T341M) = SRC(T341M) (Homo sapiens, UniProt P12931, T341M); settings: 1 µM, ATP at Km
ABL (H396P) = ABL (H396P) (Homo sapiens, UniProt P00519, H396P); settings: 1 µM, ATP at Km
ABL (M351T) = ABL (M351T) (Homo sapiens, UniProt P00519, M351T); settings: 1 µM, ATP at Km
RET(V804M) = RET(V804M) (Homo sapiens, UniProt P07949, V804M); settings: 1 µM, ATP at Km
RET(V804M), sequence (P07949 29-1114 V804M): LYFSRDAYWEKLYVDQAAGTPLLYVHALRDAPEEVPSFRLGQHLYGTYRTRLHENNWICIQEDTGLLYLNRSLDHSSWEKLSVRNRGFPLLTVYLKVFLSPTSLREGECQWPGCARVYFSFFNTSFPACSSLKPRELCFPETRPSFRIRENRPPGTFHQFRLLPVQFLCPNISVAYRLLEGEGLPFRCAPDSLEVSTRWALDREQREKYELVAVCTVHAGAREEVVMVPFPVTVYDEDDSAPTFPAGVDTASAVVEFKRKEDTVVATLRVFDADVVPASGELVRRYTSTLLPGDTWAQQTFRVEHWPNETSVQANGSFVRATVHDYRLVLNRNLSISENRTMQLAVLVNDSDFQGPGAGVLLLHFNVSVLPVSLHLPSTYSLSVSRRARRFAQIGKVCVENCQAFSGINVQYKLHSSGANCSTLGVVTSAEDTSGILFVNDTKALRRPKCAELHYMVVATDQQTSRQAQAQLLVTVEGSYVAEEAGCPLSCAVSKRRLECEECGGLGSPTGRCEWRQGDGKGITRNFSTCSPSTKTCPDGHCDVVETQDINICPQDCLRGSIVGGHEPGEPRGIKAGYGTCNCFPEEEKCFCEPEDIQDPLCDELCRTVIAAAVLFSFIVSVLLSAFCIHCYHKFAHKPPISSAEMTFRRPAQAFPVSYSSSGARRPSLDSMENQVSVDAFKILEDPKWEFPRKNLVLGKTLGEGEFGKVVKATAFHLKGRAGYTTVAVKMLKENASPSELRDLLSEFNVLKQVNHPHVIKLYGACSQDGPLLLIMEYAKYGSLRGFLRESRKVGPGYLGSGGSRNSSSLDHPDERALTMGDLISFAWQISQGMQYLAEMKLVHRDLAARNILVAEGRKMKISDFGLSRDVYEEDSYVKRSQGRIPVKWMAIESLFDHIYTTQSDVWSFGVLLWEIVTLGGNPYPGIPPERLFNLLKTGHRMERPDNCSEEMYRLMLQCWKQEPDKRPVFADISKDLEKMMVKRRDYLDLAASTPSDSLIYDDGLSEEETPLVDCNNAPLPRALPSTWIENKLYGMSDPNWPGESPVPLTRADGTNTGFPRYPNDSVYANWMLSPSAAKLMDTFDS

cMET (D1246N) = cMET (D1246N) (Homo sapiens, UniProt P08581, D1228N); settings: 1 µM, ATP at Km
cMET (Y1248D) = cMET (Y1248D) (Homo sapiens, UniProt P08581, Y1230D); settings: 1 µM, ATP at Km
HCK = HCK (Homo sapiens, UniProt P08631); settings: HCK (second listing, page 11); 1 µM; ATP at Km
cMET (Y1248C) = cMET (Y1248C) (Homo sapiens, UniProt P08581, Y1230C); settings: 1 µM, ATP at Km
LCK = LCK (Homo sapiens, UniProt P06239); settings: LCK (second listing, page 11); 1 µM; ATP at Km
LCK, sequence (P06239 whole entry): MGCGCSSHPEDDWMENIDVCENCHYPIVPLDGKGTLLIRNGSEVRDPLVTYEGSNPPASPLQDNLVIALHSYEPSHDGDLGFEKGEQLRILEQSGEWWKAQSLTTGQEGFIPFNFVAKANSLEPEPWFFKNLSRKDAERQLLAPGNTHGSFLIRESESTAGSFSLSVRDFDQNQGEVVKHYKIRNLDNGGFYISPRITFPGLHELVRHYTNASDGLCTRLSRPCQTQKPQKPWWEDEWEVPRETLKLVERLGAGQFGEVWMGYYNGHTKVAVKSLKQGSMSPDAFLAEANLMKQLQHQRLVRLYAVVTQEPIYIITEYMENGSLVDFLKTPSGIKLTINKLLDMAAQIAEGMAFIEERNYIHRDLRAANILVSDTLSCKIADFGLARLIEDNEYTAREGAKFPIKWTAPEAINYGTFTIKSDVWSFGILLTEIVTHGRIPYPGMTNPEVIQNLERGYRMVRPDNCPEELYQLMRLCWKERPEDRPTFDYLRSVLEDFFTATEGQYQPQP

CDK19 in the presence of cyclin C, sequence (Q9BWU1 whole entry): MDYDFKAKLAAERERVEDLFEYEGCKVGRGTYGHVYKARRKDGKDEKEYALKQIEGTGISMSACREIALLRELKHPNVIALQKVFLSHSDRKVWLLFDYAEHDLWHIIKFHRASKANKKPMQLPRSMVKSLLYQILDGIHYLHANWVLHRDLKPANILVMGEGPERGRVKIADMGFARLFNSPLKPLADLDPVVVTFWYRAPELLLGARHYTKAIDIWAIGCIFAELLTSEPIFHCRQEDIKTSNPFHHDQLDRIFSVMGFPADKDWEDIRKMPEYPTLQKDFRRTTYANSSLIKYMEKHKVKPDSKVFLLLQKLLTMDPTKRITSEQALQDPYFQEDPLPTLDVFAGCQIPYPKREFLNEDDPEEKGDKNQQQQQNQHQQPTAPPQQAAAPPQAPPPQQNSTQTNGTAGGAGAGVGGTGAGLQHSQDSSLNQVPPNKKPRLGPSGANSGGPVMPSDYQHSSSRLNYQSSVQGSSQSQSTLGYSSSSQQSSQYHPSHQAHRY
CDK19 in the presence of cyclin C, sequence (P24863 whole entry partner): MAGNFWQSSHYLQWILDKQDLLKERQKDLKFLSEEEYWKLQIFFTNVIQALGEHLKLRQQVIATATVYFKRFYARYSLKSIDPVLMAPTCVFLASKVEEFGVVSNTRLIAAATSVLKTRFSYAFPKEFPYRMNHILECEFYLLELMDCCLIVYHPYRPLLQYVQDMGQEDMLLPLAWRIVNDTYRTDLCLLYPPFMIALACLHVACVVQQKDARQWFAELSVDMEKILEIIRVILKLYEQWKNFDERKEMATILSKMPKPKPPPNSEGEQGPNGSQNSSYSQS

COC1CN(C(=O)c2ccc3c(N)ncc(-c4ccc(-c5cnn(C)c5)cc4)c3n2)C1 [Compound 51]
percentage effect (PKA): -1% | Caco-2 ER (Caco-2): 5.9 | Caco-2 PappA-B (Caco-2): 28.6 × 10^–6 cm/s | % in feces (iv dosing) [1]: 31% | AO substrate (Enzyme assay) (aldehyde oxidase): No | Vd (in vivo [2]; iv, 0.2 mg/kg): 1.87 L/kg | clearance (in vivo [2]; iv, 0.2 mg/kg): 32.3 mL/min/kg | bioavailability (in vivo [2]; po, 0.5 mg/kg): 18% | Vd (in vivo [3]; iv, 0.2 mg/kg): 2.13 L/kg | clearance (in vivo [3]; iv, 0.2 mg/kg): 21.5 mL/min/kg | bioavailability (in vivo [3]; po, 0.5 mg/kg): 57% | residence time [4]: 31 ± 3 min

COC1CN(C(=O)c2ccc3c(N)ncc(-c4ccc(-c5cnn(C)c5)cc4)c3c2)C1 [Compound 59]
percentage effect (ABL(T315I)): 5% | percentage effect (CK1(Y)): 4% | percentage effect (EGFR(L858R)): -15% | percentage effect (CKIT(D816V)): -3% | percentage effect (EGFR(T790M)): -2% | percentage effect (EGFR(T790M,L858R)): -2% | percentage effect ([…](D842V)): 1% | percentage effect (CKIT(V654A)): 6% | percentage effect (CHK2(R145W)): -6% | percentage effect (CHK2(I157T)): -9% | percentage effect (FGFR2(N549H)): -14% | percentage effect (SRC(1-530)): -3% | percentage effect (SRC(T341M)): -18% | percentage effect (ABL (H396P)): 5% | percentage effect (ABL (M351T)): 2% | percentage effect (RET(V804M)): 7% | percentage effect (cMET (D1246N)): 3% | percentage effect (cMET (Y1248D)): 19% | percentage effect (HCK): 0% | percentage effect (cMET (Y1248C)): -19% | percentage effect (LCK): 4%
